Tested on: Metabolism protein genes
Test: DNA chip mRNA expression in yeast, metabolism protein genes (Table 7)
Format: cell-based, Saccharomyces cerevisiae S288C
Description: Yeast (Saccharomyces cerevisiae S288C (α SUC2mal mel gap2 CUP1)) were incubated at 25° C. on YPD medium (yeast extract 1%, polypepton 2%, glucose 2%). One of toxic chemical substances was added to the cells at logarithmic growth phase, and the cells were further incubated for two hours. Cells were cultured without any chemical substance in the same condition, and were used as control. Concentrations of the chemical substances were defined to inhibit the growth of the yeast but not lead to death.
After completion of the incubation, the culture was centrifuged to collect the cells. To the cells, sodium acetate buffer (50 mM sodium acetate, 10 mM EDTA, 1% SDS) was added, and the mixture was shaken at 65° C. for five minutes, followed by returning to room temperature, and obtaining the supernatant, of which the procedures were repeated two times. To the supernatant, ½ amount of a solution of phenol/chloroform was added, and the mixture was centrifuged to give a supernatant, which was added with an equal amount of chloroform, and the mixture was centrifuged to give a supernatant. To the supernatant, an equal amount of isopropanol containing 0.3 M sodium acetate was added, and the mixture was allowed to stand at room temperature for 30 minutes, after which the mixture was centrifuged to give a sediment of the whole RNAs. Seventy % ethanol was added to the sediment, and the mixture was again centrifuged to give a sediment, which was then dried and dissolved in water. mRNA was isolated from the whole RNAs as followings. In view of the fact that a poly A chain is attached to the 3′ terminus of mRNA, a polynucleotide having a poly T structure which was immobilized on the surface of latex beads was used to trap the mRNA, and then the mRNA was washed and eluted with spine column (Oligotex-dT30<Super>mRNA Purification Kit, Takara). Reverse transcription of the mRNA was conducted with a reverse transcriptase (Super Script II Reverse Transcriptase; catalogue No. 18064-014, GibcoBRL) using fluorescence-labeled nucleotides to give cDNAs that were introduced with Cy3-dUTP or Cy5-dUTP during the reverse transcription.
The labeled cDNAs were dissolved in TE buffer (10mM Tris-HCl/1 mM EDTA, pH8.0), and the solution was dropped on the DNA chip containing the whole genes of yeast (DNA Chip Research Inc. Japan) so that the cDNAs were hybridized on the DNA chip at 65° C. for over 12 hours. The fluoresces intensity of the DNA chip was read with a scanner, and the ratio relative to the fluorescence intensity resulting from the absence of chemical substance was estimated as the following, which is shown in Tables 1 to 9: […]

## [Cl][Cd][Cl] [(2), CdCl2]
Yeast gene YAL012W
  The level of expressed mRNA in the presence of chemical substance/The level of expressed mRNA in the absence of chemical substance: 6.5
Yeast gene YAL038W
  The level of expressed mRNA in the presence of chemical substance/The level of expressed mRNA in the absence of chemical substance: 1.0
Yeast gene YBR003W
  level of expressed mRNA in the presence/in the absence of chemical substance: 0.8
Yeast gene YBR011C
  level of expressed mRNA in the presence/in the absence of chemical substance: 1.8
Yeast gene YBR020W
  level of expressed mRNA in the presence/in the absence of chemical substance: 0.5
Yeast gene YBR023C
  The level of expressed mRNA in the presence of chemical substance/The level of expressed mRNA in the absence of chemical substance: 0.8
Yeast gene YBR029C
  The level of expressed mRNA in the presence of chemical substance/The level of expressed mRNA in the absence of chemical substance: 0.2
Yeast gene YBR183W
  The level of expressed mRNA in the presence of chemical substance/The level of expressed mRNA in the absence of chemical substance: 1.5
Yeast gene YBR222C
  The level of expressed mRNA in the presence of chemical substance/The level of expressed mRNA in the absence of chemical substance: 1.2
Yeast gene YBR256C
  The level of expressed mRNA in the presence of chemical substance/The level of expressed mRNA in the absence of chemical substance: 1.4
Yeast gene YCL009C
  The level of expressed mRNA in the presence of chemical substance/The level of expressed mRNA in the absence of chemical substance: 0.9
Yeast gene YCL064C
  The level of expressed mRNA in the presence of chemical substance/The level of expressed mRNA in the absence of chemical substance: 0.6
Yeast gene YCR010C
  level of expressed mRNA in the presence/in the absence of chemical substance: 1.6
Yeast gene YCR034W
  level of expressed mRNA in the presence/in the absence of chemical substance: 0.4
Yeast gene YCR048W
  The level of expressed mRNA in the presence of chemical substance/The level of expressed mRNA in the absence of chemical substance: 1.1
Yeast gene YCR098C
  The level of expressed mRNA in the presence of chemical substance/The level of expressed mRNA in the absence of chemical substance: 3.0
Yeast gene YDR019C
  The level of expressed mRNA in the presence of chemical substance/The level of expressed mRNA in the absence of chemical substance: 0.5
Yeast gene YDR050C
  level of expressed mRNA in the presence/in the absence of chemical substance: 1.3
Yeast gene YDR073W
  level of expressed mRNA in the presence/in the absence of chemical substance: 0.9
Yeast gene YDR123C
  level of expressed mRNA in the presence/in the absence of chemical substance: 0.8
Yeast gene YDR178W
  level of expressed mRNA in the presence/in the absence of chemical substance: 2.0
Yeast gene YDR277C
  level of expressed mRNA in the presence/in the absence of chemical substance: 1.2
Yeast gene YDR284C
  level of expressed mRNA in the presence/in the absence of chemical substance: 1.5
Yeast gene YDR345C
  level of expressed mRNA in the presence/in the absence of chemical substance: 0.9
Yeast gene YDR380W
  The level of expressed mRNA in the presence of chemical substance/The level of expressed mRNA in the absence of chemical substance: 0.8
Yeast gene YDR400W
  level of expressed mRNA in the presence/in the absence of chemical substance: 2.0
Yeast gene YDR408C
  level of expressed mRNA in the presence/in the absence of chemical substance: 1.0
Yeast gene YDR483W
  level of expressed mRNA in the presence/in the absence of chemical substance: 1.0
Yeast gene YDR497C
  The level of expressed mRNA in the presence of chemical substance/The level of expressed mRNA in the absence of chemical substance: 0.5
Yeast gene YDR502C
  The level of expressed mRNA in the presence of chemical substance/The level of expressed mRNA in the absence of chemical substance: 2.8
Yeast gene YDR516C
  The level of expressed mRNA in the presence of chemical substance/The level of expressed mRNA in the absence of chemical substance: 1.5
Yeast gene YEL063C
  level of expressed mRNA in the presence/in the absence of chemical substance: 0.8
Yeast gene YER015W
  level of expressed mRNA in the presence/in the absence of chemical substance: 0.9
Yeast gene YER026C
  The level of expressed mRNA in the presence of chemical substance/The level of expressed mRNA in the absence of chemical substance: 0.6
Yeast gene YER053C
  The level of expressed mRNA in the presence of chemical substance/The level of expressed mRNA in the absence of chemical substance: 1.8
Yeast gene YER069W
  The level of expressed mRNA in the presence of chemical substance/The level of expressed mRNA in the absence of chemical substance: 0.8
Yeast gene YER081W
  level of expressed mRNA in the presence/in the absence of chemical substance: 1.9
Yeast gene YER096W
  The level of expressed mRNA in the presence of chemical substance/The level of expressed mRNA in the absence of chemical substance: 2.3
Yeast gene YER120W
  level of expressed mRNA in the presence/in the absence of chemical substance: 1.1
Yeast gene YER178W
  The level of expressed mRNA in the presence of chemical substance/The level of expressed mRNA in the absence of chemical substance: 0.9
Yeast gene YFL011W
  level of expressed mRNA in the presence/in the absence of chemical substance: 0.7
Yeast gene YFL014W
  The level of expressed mRNA in the presence of chemical substance/The level of expressed mRNA in the absence of chemical substance: 7.2
Yeast gene YFL030W
  The level of expressed mRNA in the presence of chemical substance/The level of expressed mRNA in the absence of chemical substance: 6.0
Yeast gene YFL031W
  The level of expressed mRNA in the presence of chemical substance/The level of expressed mRNA in the absence of chemical substance: 1.3
Yeast gene YFL056C
  The level of expressed mRNA in the presence of chemical substance/The level of expressed mRNA in the absence of chemical substance: 2.3
Yeast gene YFL057C
  The level of expressed mRNA in the presence of chemical substance/The level of expressed mRNA in the absence of chemical substance: 5.8
Yeast gene YFR047C
  The level of expressed mRNA in the presence of chemical substance/The level of expressed mRNA in the absence of chemical substance: 4.0
Yeast gene YGL012W
  level of expressed mRNA in the presence/in the absence of chemical substance: 0.8
Yeast gene YGL022W
  The level of expressed mRNA in the presence of chemical substance/The level of expressed mRNA in the absence of chemical substance: 0.8
Yeast gene YGL115W
  level of expressed mRNA in the presence/in the absence of chemical substance: 0.6
Yeast gene YGL126W
  The level of expressed mRNA in the presence of chemical substance/The level of expressed mRNA in the absence of chemical substance: 1.3
Yeast gene YGL205W
  level of expressed mRNA in the presence/in the absence of chemical substance: 0.9
Yeast gene YGL209W
  The level of expressed mRNA in the presence of chemical substance/The level of expressed mRNA in the absence of chemical substance: 1.6
Yeast gene YGL248W
  The level of expressed mRNA in the presence of chemical substance/The level of expressed mRNA in the absence of chemical substance: 1.3
Yeast gene YGR037C
  The level of expressed mRNA in the presence of chemical substance/The level of expressed mRNA in the absence of chemical substance: 1.2
Yeast gene YGR055W
  The level of expressed mRNA in the presence of chemical substance/The level of expressed mRNA in the absence of chemical substance: 5.7
Yeast gene YGR096W
  level of expressed mRNA in the presence/in the absence of chemical substance: 1.0
Yeast gene YGR191W
  level of expressed mRNA in the presence/in the absence of chemical substance: 0.7
Yeast gene YGR194C
  The level of expressed mRNA in the presence of chemical substance/The level of expressed mRNA in the absence of chemical substance: 1.0
Yeast gene YGR204W
  level of expressed mRNA in the presence/in the absence of chemical substance: 1.1
Yeast gene YGR256W
  The level of expressed mRNA in the presence of chemical substance/The level of expressed mRNA in the absence of chemical substance: 1.5
Yeast gene YGR282C
  The level of expressed mRNA in the presence of chemical substance/The level of expressed mRNA in the absence of chemical substance: 0.7
Yeast gene YGR288W
  level of expressed mRNA in the presence/in the absence of chemical substance: 0.5
Yeast gene YHR025W
  level of expressed mRNA in the presence/in the absence of chemical substance: 0.8
Yeast gene YHR111W
  The level of expressed mRNA in the presence of chemical substance/The level of expressed mRNA in the absence of chemical substance: 1.3
Yeast gene YHR123W
  level of expressed mRNA in the presence/in the absence of chemical substance: 1.2
Yeast gene YHR137W
  The level of expressed mRNA in the presence of chemical substance/The level of expressed mRNA in the absence of chemical substance: 1.0
Yeast gene YHR174W
  The level of expressed mRNA in the presence of chemical substance/The level of expressed mRNA in the absence of chemical substance: 1.4
Yeast gene YHR176W
  The level of expressed mRNA in the presence of chemical substance/The level of expressed mRNA in the absence of chemical substance: 2.0
Yeast gene YHR210C
  level of expressed mRNA in the presence/in the absence of chemical substance: 1.0
Yeast gene YIL006W
  level of expressed mRNA in the presence/in the absence of chemical substance: 1.1
Yeast gene YIL045W
  The level of expressed mRNA in the presence of chemical substance/The level of expressed mRNA in the absence of chemical substance: 1.4
Yeast gene YIL107C
  The level of expressed mRNA in the presence of chemical substance/The level of expressed mRNA in the absence of chemical substance: 0.8
Yeast gene YIL154C
  The level of expressed mRNA in the presence of chemical substance/The level of expressed mRNA in the absence of chemical substance: 1.3
Yeast gene YIL155C
  The level of expressed mRNA in the presence of chemical substance/The level of expressed mRNA in the absence of chemical substance: 0.7
Yeast gene YIR034C
  The level of expressed mRNA in the presence of chemical substance/The level of expressed mRNA in the absence of chemical substance: 1.1
Yeast gene YIR036C
  The level of expressed mRNA in the presence of chemical substance/The level of expressed mRNA in the absence of chemical substance: 1.7
Yeast gene YJL031C
  The level of expressed mRNA in the presence of chemical substance/The level of expressed mRNA in the absence of chemical substance: 1.2
Yeast gene YJL068C
  The level of expressed mRNA in the presence of chemical substance/The level of expressed mRNA in the absence of chemical substance: 2.7
Yeast gene YJL088W
  The level of expressed mRNA in the presence of chemical substance/The level of expressed mRNA in the absence of chemical substance: 0.8
Yeast gene YJL099W
  The level of expressed mRNA in the presence of chemical substance/The level of expressed mRNA in the absence of chemical substance: 1.2
Yeast gene YJL121C
  level of expressed mRNA in the presence/in the absence of chemical substance: 0.5
Yeast gene YJL167W
  level of expressed mRNA in the presence/in the absence of chemical substance: 1.4
Yeast gene YJL172W
  The level of expressed mRNA in the presence of chemical substance/The level of expressed mRNA in the absence of chemical substance: 2.1
Yeast gene YJL216C
  level of expressed mRNA in the presence/in the absence of chemical substance: 4.7
Yeast gene YJL219W
  The level of expressed mRNA in the presence of chemical substance/The level of expressed mRNA in the absence of chemical substance: 2.5
Yeast gene YJR077C
  level of expressed mRNA in the presence/in the absence of chemical substance: 1.1
Yeast gene YJR137C
  The level of expressed mRNA in the presence of chemical substance/The level of expressed mRNA in the absence of chemical substance: 2.9
Yeast gene YJR143C
  level of expressed mRNA in the presence/in the absence of chemical substance: 0.6
Yeast gene YJR148W
  The level of expressed mRNA in the presence of chemical substance/The level of expressed mRNA in the absence of chemical substance: 1.4

Source: patent US8192962B2, “Processes for detecting toxic substances” (Daikin Industries, Ltd., priority 2001, dated 2012)
